Experimental data reported in publication PMC4441267.

How the values were obtained:
[1] = CuAAC macrocyclisation to 1,4-triazole (CuI 2 eq, DIPEA 3 eq), Boc retained; details: THF (reflux), 1.2 mM, 66.0 °C, 18.0 h
[2] = CuAAC macrocyclisation of azide/terminal alkyne linear peptidomimetics to 1,4-triazole (CuI 2 eq, DIPEA 3 eq, Ar-degassed), then Boc removal (TMSCl/MeOH GP4; HCl/dioxane GP5 for A13w, J13w); details: THF (reflux), 1.2 mM, 66.0 °C, 18.0 h, 2 steps

**Q.** For COC(=O)[C@@H]1CCCCn2cc(nn2)CCCC(=O)NCCCC[C@H](NC(=O)OC(C)(C)C)C(=O)N[C@H](C(=O)OC)CCC(=O)N1 [Boc-Lys(5-hexynoyl)-Glu(gamma-Lys(N3)-OMe)-OMe], which ring closure, isolated yield ([1]; from C#CCCCC(=O)NCCCC[C@H](NC(=O)OC(C)(C)C)C(=O)N[C@@H](CCC(=O)N[C@@H](CCCCN=[N+]=[N-])C(=O)OC)C(=O)OC, 25-membered ring) is on record?
**A.** 70%

**Q.** With COC(=O)[C@@H]1CCCCn2cc(nn2)CNC(=O)NC[C@H](NC(=O)OC(C)(C)C)C(=O)N[C@H](C(=O)OC)CCC(=O)N1 [Boc-Dap(CONH-propargyl)-Glu(gamma-Lys(N3)-OMe)-OMe] as the molecule, how does the ring closure, isolated yield ([1]; from C#CCNC(=O)NC[C@H](NC(=O)OC(C)(C)C)C(=O)N[C@@H](CCC(=O)N[C@@H](CCCCN=[N+]=[N-])C(=O)OC)C(=O)OC, 21-membered ring) read?
**A.** 99%

**Q.** With COC(=O)[C@@H]1CCCCn2cc(nn2)CNC(=O)NCC[C@H](NC(=O)OC(C)(C)C)C(=O)N[C@H](C(=O)OC)CCC(=O)N1 [Boc-Dab(CONH-propargyl)-Glu(gamma-Lys(N3)-OMe)-OMe] as the molecule, how does the ring closure, isolated yield ([1]; from C#CCNC(=O)NCC[C@H](NC(=O)OC(C)(C)C)C(=O)N[C@@H](CCC(=O)N[C@@H](CCCCN=[N+]=[N-])C(=O)OC)C(=O)OC, 22-membered ring) read?
**A.** 67%

**Q.** Which ring closure, isolated yield ([1]; from C#CCCC(=O)NCCC[C@H](NC(=O)OC(C)(C)C)C(=O)N[C@@H](CCC(=O)N[C@@H](CCCCN=[N+]=[N-])C(=O)OC)C(=O)OC, 23-membered ring) does the source give for COC(=O)[C@@H]1CCCCn2cc(nn2)CCC(=O)NCCC[C@H](NC(=O)OC(C)(C)C)C(=O)N[C@H](C(=O)OC)CCC(=O)N1 [Boc-Orn(4-pentynoyl)-Glu(gamma-Lys(N3)-OMe)-OMe] here?
**A.** 71%

**Q.** With COC(=O)[C@@H]1CCCCn2cc(nn2)CCCC(=O)NC[C@H](NC(=O)OC(C)(C)C)C(=O)N[C@H](C(=O)OC)CCC(=O)N1 [Boc-Dap(5-hexynoyl)-Glu(gamma-Lys(N3)-OMe)-OMe] as the molecule, how does the ring closure, isolated yield ([1]; from C#CCCCC(=O)NC[C@H](NC(=O)OC(C)(C)C)C(=O)N[C@@H](CCC(=O)N[C@@H](CCCCN=[N+]=[N-])C(=O)OC)C(=O)OC, 22-membered ring) read?
**A.** 69%

**Q.** Which ring closure, isolated yield ([1]; from C#CCCC(=O)NC[C@H](NC(=O)OC(C)(C)C)C(=O)N[C@@H](CCC(=O)N[C@@H](CCCCN=[N+]=[N-])C(=O)OC)C(=O)OC, 21-membered ring) does the source give for COC(=O)[C@@H]1CCCCn2cc(nn2)CCC(=O)NC[C@H](NC(=O)OC(C)(C)C)C(=O)N[C@H](C(=O)OC)CCC(=O)N1 [Boc-Dap(4-pentynoyl)-Glu(gamma-Lys(N3)-OMe)-OMe] here?
**A.** 94%

**Q.** With COC(=O)[C@@H]1CCCCn2cc(nn2)CCCC(=O)NCCC[C@H](NC(=O)OC(C)(C)C)C(=O)N[C@H](C(=O)OC)CCC(=O)N1 [Boc-Orn(5-hexynoyl)-Glu(gamma-Lys(N3)-OMe)-OMe] as the molecule, how does the ring closure, isolated yield ([1]; from C#CCCCC(=O)NCCC[C@H](NC(=O)OC(C)(C)C)C(=O)N[C@@H](CCC(=O)N[C@@H](CCCCN=[N+]=[N-])C(=O)OC)C(=O)OC, 24-membered ring) read?
**A.** 99%

**Q.** Which ring closure, isolated yield ([1]; from C#CCNC(=O)NCCC[C@H](NC(=O)OC(C)(C)C)C(=O)N[C@@H](CCC(=O)N[C@@H](CCCCN=[N+]=[N-])C(=O)OC)C(=O)OC, 23-membered ring) does the source give for COC(=O)[C@@H]1CCCCn2cc(nn2)CNC(=O)NCCC[C@H](NC(=O)OC(C)(C)C)C(=O)N[C@H](C(=O)OC)CCC(=O)N1 [Boc-Orn(CONH-propargyl)-Glu(gamma-Lys(N3)-OMe)-OMe] here?
**A.** 60%

**Q.** With COC(=O)[C@@H]1CCCCn2cc(nn2)CCCC(=O)Nc2ccc(cc2)C[C@H](NC(=O)OC(C)(C)C)C(=O)N[C@H](C(=O)OC)CCC(=O)N1 [Boc-Phe(4-NH-5-hexynoyl)-Glu(gamma-Lys(N3)-OMe)-OMe] as the molecule, how does the ring closure, isolated yield ([1]; from C#CCCCC(=O)Nc1ccc(C[C@H](NC(=O)OC(C)(C)C)C(=O)N[C@@H](CCC(=O)N[C@@H](CCCCN=[N+]=[N-])C(=O)OC)C(=O)OC)cc1, 26-membered ring) read?
**A.** 12%

**Q.** Which ring closure, isolated yield ([1]; from C#CCCC(=O)NCCCC[C@H](NC(=O)OC(C)(C)C)C(=O)N[C@@H](CCC(=O)N[C@@H](CCCCN=[N+]=[N-])C(=O)OC)C(=O)OC, 24-membered ring) does the source give for COC(=O)[C@@H]1CCCCn2cc(nn2)CCC(=O)NCCCC[C@H](NC(=O)OC(C)(C)C)C(=O)N[C@H](C(=O)OC)CCC(=O)N1 [Boc-Lys(4-pentynoyl)-Glu(gamma-Lys(N3)-OMe)-OMe] here?
**A.** 69%

**Q.** Which ring closure, yield over several steps ([2]; from C#CCCCC(=O)NCC[C@H](NC(=O)OC(C)(C)C)C(=O)N[C@@H](CCCN=[N+]=[N-])C(=O)OC, 17-membered ring) does the source give for COC(=O)[C@@H]1CCCn2cc(nn2)CCCC(=O)NCC[C@H](NC(=O)OC(C)(C)C)C(=O)N1 [Boc-Dab(5-hexynoyl)-Orn(N3)-OMe] here?
**A.** 60%

**Q.** For COC(=O)[C@@H]1CNC(=O)[C@H](Cc2ccccc2)n2cc(nn2)CNC(=O)NC[C@H](NC(=O)OC(C)(C)C)C(=O)N1 [Boc-Dap(CONH-propargyl)-Dap(N3-Phe)-OMe], which ring closure, yield over several steps ([2]; from C#CCNC(=O)NC[C@H](NC(=O)OC(C)(C)C)C(=O)N[C@@H](CNC(=O)[C@H](Cc1ccccc1)N=[N+]=[N-])C(=O)OC, 16-membered ring) is on record?
**A.** 99%

**Q.** Which ring closure, yield over several steps ([2]; from C#CCCCC(=O)NCC[C@H](NC(=O)OC(C)(C)C)C(=O)N[C@@H](CNC(=O)[C@H](Cc1ccccc1)N=[N+]=[N-])C(=O)OC, 18-membered ring) does the source give for COC(=O)[C@@H]1CNC(=O)[C@H](Cc2ccccc2)n2cc(nn2)CCCC(=O)NCC[C@H](NC(=O)OC(C)(C)C)C(=O)N1 [Boc-Dab(5-hexynoyl)-Dap(N3-Phe)-OMe] here?
**A.** 70%

**Q.** For COC(=O)[C@@H]1CCCCn2cc(nn2)CCC(=O)NC[C@H](NC(=O)OC(C)(C)C)C(=O)N1 [Boc-Dap(4-pentynoyl)-Lys(N3)-OMe], which ring closure, yield over several steps ([2]; from C#CCCC(=O)NC[C@H](NC(=O)OC(C)(C)C)C(=O)N[C@@H](CCCCN=[N+]=[N-])C(=O)OC, 16-membered ring) is on record?
**A.** 59%

**Q.** Which ring closure, yield over several steps ([2]; from C#CCCC(=O)NCC[C@H](NC(=O)OC(C)(C)C)C(=O)N[C@@H](CCCCNC(=O)[C@H](Cc1ccccc1)N=[N+]=[N-])C(=O)OC, 20-membered ring) does the source give for COC(=O)[C@@H]1CCCCNC(=O)[C@H](Cc2ccccc2)n2cc(nn2)CCC(=O)NCC[C@H](NC(=O)OC(C)(C)C)C(=O)N1 [Boc-Dab(4-pentynoyl)-Lys(N3-Phe)-OMe] here?
**A.** 91%

**Q.** With COC(=O)[C@@H]1CCCCNC(=O)[C@H](Cc2ccccc2)n2cc(nn2)CNC(=O)NCCC[C@H](NC(=O)OC(C)(C)C)C(=O)N1 [Boc-Orn(CONH-propargyl)-Lys(N3-Phe)-OMe] as the molecule, how does the ring closure, yield over several steps ([2]; from C#CCNC(=O)NCCC[C@H](NC(=O)OC(C)(C)C)C(=O)N[C@@H](CCCCNC(=O)[C@H](Cc1ccccc1)N=[N+]=[N-])C(=O)OC, 21-membered ring) read?
**A.** 87%

**Q.** Which ring closure, yield over several steps ([2]; from C#CCNC(=O)NCCC[C@H](NC(=O)OC(C)(C)C)C(=O)N[C@@H](CCCCN=[N+]=[N-])C(=O)OC, 18-membered ring) does the source give for COC(=O)[C@@H]1CCCCn2cc(nn2)CNC(=O)NCCC[C@H](NC(=O)OC(C)(C)C)C(=O)N1 [Boc-Orn(CONH-propargyl)-Lys(N3)-OMe] here?
**A.** 99%

**Q.** With COC(=O)[C@@H]1CCCCn2cc(nn2)CNC(=O)NCCCC[C@H](NC(=O)OC(C)(C)C)C(=O)N[C@H](C(=O)OC)CCC(=O)N1 [Boc-Lys(CONH-propargyl)-Glu(gamma-Lys(N3)-OMe)-OMe] as the molecule, how does the ring closure, isolated yield ([1]; from C#CCNC(=O)NCCCC[C@H](NC(=O)OC(C)(C)C)C(=O)N[C@@H](CCC(=O)N[C@@H](CCCCN=[N+]=[N-])C(=O)OC)C(=O)OC, 24-membered ring) read?
**A.** 62%

**Q.** For COC(=O)[C@@H]1CNC(=O)[C@H](Cc2ccccc2)n2cc(nn2)CNC(=O)NCCC[C@H](NC(=O)OC(C)(C)C)C(=O)N1 [Boc-Orn(CONH-propargyl)-Dap(N3-Phe)-OMe], which ring closure, yield over several steps ([2]; from C#CCNC(=O)NCCC[C@H](NC(=O)OC(C)(C)C)C(=O)N[C@@H](CNC(=O)[C@H](Cc1ccccc1)N=[N+]=[N-])C(=O)OC, 18-membered ring) is on record?
**A.** 96%

**Q.** Which ring closure, yield over several steps ([2]; from C#CCCCC(=O)NCC[C@H](NC(=O)OC(C)(C)C)C(=O)N[C@@H](CCCCNC(=O)[C@H](Cc1ccccc1)N=[N+]=[N-])C(=O)OC, 21-membered ring) does the source give for COC(=O)[C@@H]1CCCCNC(=O)[C@H](Cc2ccccc2)n2cc(nn2)CCCC(=O)NCC[C@H](NC(=O)OC(C)(C)C)C(=O)N1 [Boc-Dab(5-hexynoyl)-Lys(N3-Phe)-OMe] here?
**A.** 88%
